Read-outs that look alike come from different tables or passages of the source.
Experiments:
[1] = system: HER2 negative and p95HER2 transfected cell lines; assay: In vitro uptake assay, HER2 negative and p95HER2 transfected cell lines; type: cell-based, human; settings: across all HER2 negative and p95HER2 transfected lines, 60 minutes
Text: MCF7-vector (piRES), MCF7-p95HER2 and MCF7-HER2 cells were a kind gift of Jose Baselga's laboratory (17). MCF7 clones, MDA-MB-231 (ATCC, Manassas, Va.), MDA-MB-361 (Sigma-Aldrich), SKBR-3 (ATCC) and SKOV-3 (Sigma-Aldrich) cells were maintained in DMEM. AGS (Sigma-Aldrich), HGC-27 (Sigma-Aldrich), NCI-N87 (ATCC) and OE-33 (ATCC) cells were maintained in RPMI (Sigma-Aldrich). A431 cells (Sigma-Aldrich) were maintained in MEM Eagle medium (Sigma-Aldrich). Growth media were supplemented with 10% FCS (Lonza, Basel, Switzerland), glutamine and antibiotics (both Invitrogen, Paisley, United Kingdom). A431 cells were additionally supplemented with 1% non-essential amino acids. All cells were cultured at 37° C. in a humidified atmosphere containing 5% CO2.
For baseline uptake in HER2 positive or negative lineages, 3×10^5 cells were seeded in complete media in 12-well plates (Corning, Tewksbury Mass.) and allowed to recover overnight. Cells were washed twice with serum-free medium and pulsed with 370 KBq in 500 μL serum-free medium for one h. […]
Cells were washed with PBS, trypsinized, neutralized with complete medium and centrifuged. […] The radioactivity of 100 μL lysate was counted on a Packard Cobra II gamma counter (Perkin Elmer). Radioactivity was normalized to applied radioactivity and protein content, which was determined for each sample by BCA assay (Pierce, Rockford, Ill.). […]

[2] = Metabolic stability, plasma radio-HPLC; type: in vivo, mice; settings: 3.7 MBq i.v., 10, 30 and 60 minutes post injection
Description: At 10, 30 and 60 minute post injection, mice were exsanguinated via cardiac puncture and blood removed for centrifugation. Plasma was obtained and kept on ice for analysis of radioactive metabolites by HPLC.

rhesus HER2 = assay: Surface Plasmon Resonance, rhesus HER2-ECD-Fc; type: binding
Description: (§1) To characterize the affinity of [^19F]GE-226[SEQ ID NO 1] to HER2 protein, Surface Plasmon Resonance studies were conducted. Human, rhesus and rat HER2-ECD-Fc (SINO Biological, Beijing, China, Cat. Nr: 10004-H02H, 90020-K02H, and 80079-R02H), as well as human HER2-ECD-Fc-6×His (R&D Systems, Minneapolis, Minn., Cat. Nr: 1129-ER) and p95HER2 ECD-Fc-6×His (Syngene, Cambridge, United Kingdom) were diluted with 50 mM sodium acetate pH 4.5 (Biacore (GE Healthcare, Buckinghamshire, UK) coupling buffer) to a final concentration of 10 μg/mL. Antigen coupling to Biacore sensor chip CMS (Cat. Nr: BR-1005-30) was done according to amine coupling protocol from the instrument manual (Syngene). HBS-EP buffer (10 mM HEPES pH 7.4, 150 mM NaCl, 3 mM EDTA and 0.005% surfactant P20; GE Healthcare, Little Chalfont, United Kingdom, Cat. Nr: BR-1006-69) was used as running buffer and as solvent for the substances. The affinity studies were performed using a Biacore T100 (GE Healthcare). [^19F]GE-226 was diluted in HBS-EP buffer to 50 nM, 25 nM, 12.5 nM, 6.25 nM, 3.125 nM, 1.56 nM, 0.78 nM, 0.39 nM, 0.195 nM, 0.097 nM, 0.049 nM and 0 nM. The flow cells of the first chip comprised of blank, human HER2-ECD-Fc-6×His, p95HER2-ECD-Fc-6×His batch I and p95HER2-ECD-Fc-6×His batch II. The flow cells on the second chip contained blank, human HER2-ECD-Fc, rhesus HER2-ECD-Fc and rat HER2 ECD-Fc. The immobilization of the proteins was validated with protein-A (Sigma-Aldrich, St. Louis, Mo., Cat. Nr: P6031) and anti-human IgG antibody (Perkin Elmer, Waltham, Mass., Cat. Nr: NEF803001EA). [^19F]GE-226[SEQ ID NO 1] was pumped in duplicate over cells in randomized order for 60 sec at 50 μL/min flow rate followed by 120 sec of HBS-EP to monitor dissociation. This was followed by regeneration of the chip with 50 mM sodium hydroxide for 30 sec at 30 μL/min flow rate followed by 60 sec run of HBS-EP to stabilize the surface. Kinetic calculations were performed using Langmuir 1:1 binding model and simultaneous calculation of association and dissociation phase.

human p95HER2 = assay: Surface Plasmon Resonance, p95HER2 ECD-Fc-6×His; type: binding
Description: as §1, with “The immobilization of the proteins was validated with protein-A (Sigma-Aldrich, St. Louis, Mo., Cat. Nr: P6031) and anti-human IgG antibody (Perkin Elmer, Waltham, Mass., Cat. Nr: NEF803001EA). [^19F]GE-226[SEQ ID NO 1] was pumped in duplicate over cells in randomized order for 60 sec at 50 μL/min flow rate followed by 120 sec of HBS-EP to monitor dissociation. This was followed by regeneration of the chip with 50 mM sodium hydroxide for 30 sec at 30 μL/min flow rate followed by 60 sec run of HBS-EP to stabilize the surface. Kinetic calculations were performed using Langmuir 1:1 binding model and simultaneous calculation of association and dissociation phase.” left out

rat HER2 = biological target: T1, rat HER2 (Rattus norvegicus, UniProt P06494); assay: Surface Plasmon Resonance, rat HER2-ECD-Fc; type: binding
T1 construct: Human, rhesus and rat HER2-ECD-Fc (SINO Biological, Beijing, China, Cat. Nr: 10004-H02H, 90020-K02H, and 80079-R02H); Fc (C); purchased SINO Biological 80079-R02H
Description: as §1

[3] = listed as 19F-Affibody analogue

T1 sequence (P06494 23-654 limits assumed): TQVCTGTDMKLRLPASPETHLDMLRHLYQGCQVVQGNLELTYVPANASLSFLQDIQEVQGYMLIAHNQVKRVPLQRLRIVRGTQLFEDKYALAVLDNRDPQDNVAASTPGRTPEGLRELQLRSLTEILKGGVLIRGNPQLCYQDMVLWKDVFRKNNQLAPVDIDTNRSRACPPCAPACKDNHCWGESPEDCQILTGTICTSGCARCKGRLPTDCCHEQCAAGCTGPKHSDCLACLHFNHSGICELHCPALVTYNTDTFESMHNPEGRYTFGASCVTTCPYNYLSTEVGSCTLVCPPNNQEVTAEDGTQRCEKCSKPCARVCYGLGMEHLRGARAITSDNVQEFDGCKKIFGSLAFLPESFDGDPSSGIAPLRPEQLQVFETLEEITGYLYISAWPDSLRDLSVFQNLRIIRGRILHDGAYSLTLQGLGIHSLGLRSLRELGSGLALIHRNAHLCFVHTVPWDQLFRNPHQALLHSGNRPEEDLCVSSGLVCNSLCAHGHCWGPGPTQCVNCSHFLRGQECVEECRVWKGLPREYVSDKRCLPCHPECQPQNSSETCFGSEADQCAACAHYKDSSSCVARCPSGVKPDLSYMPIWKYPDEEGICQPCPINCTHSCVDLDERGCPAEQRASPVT

| Substance | background uptake [1] | metabolic stability [2] | metabolic stability ([2]; listed as tracer) | Off-rate koff (rhesus HER2; Rhesus HER2) [s⁻¹] | On-rate kon (rhesus HER2; Rhesus HER2, Langmuir 1:1 binding model) [M⁻¹ s⁻¹] | Kd (rhesus HER2; Rhesus HER2, read-out: Affinity KD) [pM] | binding to rhesus HER2 (words) (rhesus HER2; listed as GE-226) | binding to rhesus HER2 (words) (rhesus HER2; listed as [^19F]-GE-226) | Kd (rhesus HER2; rhesus HER2, text, read-out: KD) [pM] | interaction with human p95HER2 (words) (human p95HER2) | interaction with human p95HER2 (words) (human p95HER2; [3]) | interaction with rat HER2 (words) (rat HER2) | interaction with rat HER2 (words) (rat HER2; [3]) | interaction with rat HER2 (words) (rat HER2; listed as GE-226) |
| --- | --- | --- | --- | --- | --- | --- | --- | --- | --- | --- | --- | --- | --- | --- |
| [^18F]GE-226: HER2-binding 18F-radiolabelled Affibody molecule ZHER2:2891 | 1.2±0.5 % applied radioactivity per mg protein | metabolically stable | stable in vivo | – | – | – | – | – | – | – | – | – | – | – |
| [^19F]GE-226: cold unlabeled non-radioactive 19F analogue of the tracer, used for SPR and blocking | – | – | – | 0.000425 | 6.37e+06 | 66.7 | binds with high affinity | high affinity binding | 67 | did not interact | did not interact | did not interact | did not interact | not |
